Test results as given in PubChem BioAssay (NCI).
Values joined by “and” are separate entries in the source; they are usually repeats but may differ in a detail not shown here. Identical values can stand only once.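 Test compounds were applied to cells in 96-well plates for 48 hours at 5 doses. GI50 marks 50% less growth. TGI: concentration producing complete growth inhibition.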

Columns and labels:
Assay in all cases: NCI tumour cell line growth inhibition, 48 h
KM12 colon = tested on: KM12 colon
MCF7 breast = tested on: MCF7 breast
SK-MEL-2 melanoma = tested on: SK-MEL-2 melanoma
DU-145 prostate = tested on: DU-145 prostate
SW-620 colon = tested on: SW-620 colon
RXF 393 renal = tested on: RXF 393 renal
RPMI-8226 leukemia = tested on: RPMI-8226 leukemia
SK-MEL-28 melanoma = tested on: SK-MEL-28 melanoma
NCI/ADR-RES ovarian = tested on: NCI/ADR-RES ovarian
NCI-H23 lung = tested on: NCI-H23 lung

Row | SMILES | GI50 (KM12 colon) [nM] | TGI (KM12 colon) | GI50 (MCF7 breast) [nM] | TGI (MCF7 breast) [nM] | GI50 (SK-MEL-2 melanoma) [nM] | TGI (SK-MEL-2 melanoma) [nM] | GI50 (DU-145 prostate) [nM] | TGI (DU-145 prostate) | GI50 (SW-620 colon) | TGI (SW-620 colon) [nM] | GI50 (RXF 393 renal) | TGI (RXF 393 renal) [nM] | GI50 (RPMI-8226 leukemia) | TGI (RPMI-8226 leukemia) [nM] | GI50 (SK-MEL-28 melanoma) | TGI (SK-MEL-28 melanoma) [nM] | GI50 (NCI/ADR-RES ovarian) [nM] | TGI (NCI/ADR-RES ovarian) | GI50 (NCI-H23 lung) | TGI (NCI-H23 lung)
1 | CN(C)c1ccc(/C=N/NC(=O)c2cccc3ccccc23)c(Cl)c1 | 1010 | > 100000 nM | 348 | > 100000 | 815 | 16500 | 4070 | > 100000 nM | 578 nM | > 100000 | 1310 nM | 10800 | 2190 nM | > 100000 | 3500 nM | > 100000 | 1020 | > 100000 nM | 7510 nM | > 100000 nM
2 | Cc1cc(S(N)(=O)=O)c(S/C(=N\Nc2ccc([N+](=O)[O-])cc2)c2ccc3ccccc3c2)cc1Cl | 25200 | 99000 nM | 19900 | > 100000 | > 100000 | > 100000 | 13200 | 43000 nM | 33400 nM | > 100000 | 8690 nM | 54800 | 37700 nM | > 100000 | 35100 nM | > 100000 | 13900 | 41900 nM | 16400 nM | 30200 nM
3 | O=C1N[C@H]2[C@H](O)[C@H](O)[C@@H](O)[C@H](O)[C@@H]2c2cc3c(c(O)c21)OCO3 | 234 | 2800 nM and 410 nM | 20.8 |  | 266 |  | 10.1 | 96.3 nM and 102 nM | 239 nM and 250 nM |  | 148 nM and 423 nM |  | 224 nM and 842 nM |  | 308 nM and 382 nM |  | 24.1 | 189 nM and 523 nM | 241 nM and 375 nM | 712 nM and 2180 nM and 677 nM
4 | CN(C)c1ccc(C(=C2C=CC(=[N+](C)C)C=C2)c2ccccc2Cl)cc1 | 283 | 929 nM | 237 | 899 | 339 | 899 | 374 | 1310 nM | 288 nM | 1190 | 405 nM | 1610 | 184 nM | 893 | 400 nM | 1440 | 1890 | 14800 nM | 282 nM | 1280 nM
5 | CC12CCC(O)CC1=CCC1C2CCC2(C)C(c3cccnc3)=CCC12 (stereo not drawn) | > 100000 | > 100000 nM | > 100000 | > 100000 | > 100000 | > 100000 | > 100000 | > 100000 nM | > 100000 nM | > 100000 | 40200 nM | > 100000 | 39100 nM | > 100000 | > 100000 nM | > 100000 | > 100000 | > 100000 nM | > 100000 nM | > 100000 nM
6 | COC(=O)[C@@H](OC)[C@@H]1Cc2cc3cc(OC4CC(OC5CC(O)C(O)C(C)O5)C(O)C(C)O4)c(C)c(O)c3c(O)c2C(=O)[C@H]1OC1CC(OC2CC(OC3CC(C)(O)C(O)C(C)O3)C(O)C(C)O2)C(O)C(C)O1 (stereo partly drawn) | 40.4 | 3720 nM | 27.5 | > 16500 | 35.5 | 77.7 | 43.3 | > 16500 nM | 40 nM | > 16500 | 26.3 nM | 62.3 | 32.9 nM | 112 | 31.2 nM | 106 | 688 | > 16500 nM | 34.5 nM | 
7 | Cc1ccc(C(=O)N=Nc2c(O)[nH]c3ccc(Cl)cc23)cc1 | > 50000 | > 50000 nM | 13500 | > 50000 | > 50000 | > 50000 | 46900 | > 50000 nM | 11400 nM | 41400 | 13700 nM | > 50000 | 5740 nM | > 50000 | 41800 nM | > 50000 | > 50000 | > 50000 nM | 16900 nM | > 50000 nM
